# Patent US20260285846A1, “REV-ERB AGONISTS FOR TH17-MEDIATED INFLAMMATORY DISORDERS” (UNIVERSITY OF FLORID RESEARCH FOUNDATION, iNCORPORATED, priority 2021, published 2026)
# Target: REV-ERBα LBD (Homo sapiens, UniProt P20393, DEL324-422)
# Test: biochemical
# Settings: FRET assay; 6xHistag-REV-ERBα LBD with FITC-labeled SMRT corepressor peptide; read-out: REVERBα (Agonism of REV-ERBα, EC50)
# Protocol: TR-FRET corepressor interaction assay. The time-resolved fluorescence resonance energy transfer (TR-FRET) assay was performed in black low-volume 384-well plates (Greiner). Each well contained 4 nM 6×Histag-REV-ERBα LBD (human; residues 281-614 A324-422) or 6×Histag-REV-ERBα LBD (human; residues 381-579) protein expressed in and purified from Escherichia coli using nickel affinity and size exclusion chromatography; 1 nM LanthaScreen Elite Tb-anti-HIS Antibody (Thermo Fisher Scientific); and 400 nM FITC-labeled peptide derived from the SMRT corepressor ([…]) containing a N-terminal FITC label with a six-carbon linker (Ahx) and an amidated C-terminus for stability (synthesized by LifeTein) in TR-FRET buffer (20 mM potassium phosphate, pH 7.4, 50 mM potassium chloride, 1 mM dithiothreitol, and 0.005% Tween-20). Ligand stocks were prepared via serial dilution in DMSO, added to wells in triplicate, and plates were incubated at 4° C. for 2 h and read using a BioTek Synergy Neo multimode plate reader. The Tb donor was excited at 340 nm; its fluorescence emission was monitored at 495 nm, and the acceptor FITC emission was measured at 520 nm; and the TR-FRET ratio was calculated as the signal at 520 nm divided by the signal at 495 nm. Data were plotted using GraphPad Prism as TR-FRET ratio vs. ligand concentration and fit to sigmoidal dose response curve equation.
# Exemplary compounds of the present disclosure were assayed as described above to assess agonism of REV-ERBα. Results of the FRET assay are shown in Table 2 below (A: EC50<100 nM; B: EC50 100 nM-1000 nM; C: EC50>1000 nM; NT: not tested).
# Sequence of REV-ERBα LBD (P20393 with tags, fused parts or gaps DEL324-422): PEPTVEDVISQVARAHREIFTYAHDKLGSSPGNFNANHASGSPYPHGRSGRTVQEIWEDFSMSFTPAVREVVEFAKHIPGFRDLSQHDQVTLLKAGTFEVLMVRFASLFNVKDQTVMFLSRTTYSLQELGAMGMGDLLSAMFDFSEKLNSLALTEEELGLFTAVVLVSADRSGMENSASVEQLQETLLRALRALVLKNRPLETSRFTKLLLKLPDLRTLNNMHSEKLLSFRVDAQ
# Sequence of REV-ERBα LBD (Q9Y618 2335-2356 partner limits assumed): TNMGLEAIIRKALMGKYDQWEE
row,SMILES,EC50
1,"CC(C)(C)Cn1cc([C@H](NS(=O)(=O)C2CC2)C(F)F)c2ccc(-c3cnccc3C(F)(F)F)cc21 [Compound 79, (S)—N-(2,2-difluoro-1-(1-neopentyl-6-(4-(trifluoromethyl)pyridin-3-yl)-1H-indol-3-yl)ethyl)cyclopropanesulfonamide]",< 0.1 µM
2,"CC(C)(C)Cn1cc([C@H](NS(=O)(=O)C2CC2)C(F)(F)F)c2ccc(-c3cc(F)ccc3C(F)(F)F)cc21 [Compound 3, (S)—N-(2,2,2-trifluoro-1-(6-(5-fluoro-2-(trifluoromethyl)phenyl)-1-neopentyl-1H-indol-3-yl)ethyl)cyclopropanesulfonamide]",< 0.1 µM
3,"CC(C)(C)Cn1cc([C@H](NS(=O)(=O)C2CC2)C(F)F)c2cc(F)c(-c3ncc(F)cc3Cl)cc21 [Compound 93, (S)—N-(1-(6-(3-chloro-5-fluoropyridin-2-yl)-5-fluoro-1-neopentyl-1H-indol-3-yl)-2,2-difluoroethyl)cyclopropanesulfonamide]",< 0.1 µM
4,"[2H]C1([2H])CC(S(=O)(=O)N[C@@H](c2cn(CC(C)(C)C)c3cc(-c4cccnc4C(F)(F)F)c(F)cc23)C(F)F)C1 [Compound 45, (S)—N-(2,2-difluoro-1-(5-fluoro-1-neopentyl-6-(2-(trifluoromethyl)pyridin-3-yl)-1H-indol-3-yl)ethyl)cyclobutane-1-sulfonamide-3,3-d2]",< 0.1 µM
5,"CC(C)(C)Cn1cc([C@H](NS(=O)(=O)C2CC2)C(F)F)c2ccc(-c3cc(F)cnc3C#N)cc21 [Compound 86, (S)—N-(1-(6-(2-cyano-5-fluoropyridin-3-yl)-1-neopentyl-1H-indol-3-yl)-2,2-difluoroethyl)cyclopropanesulfonamide]",< 0.1 µM
6,"CC(C)(C)Cn1cc([C@H](NS(=O)(=O)C2CC2)C(F)F)c2ccc(-c3ccccc3C(F)F)cc21 [Compound 81, (S)—N-(1-(6-(2-(difluoromethyl)phenyl)-1-neopentyl-1H-indol-3-yl)-2,2-difluoroethyl)cyclopropanesulfonamide]",< 0.1 µM
7,"O=S(=O)(N[C@@H](c1cn(C2CCC2)c2nc(-c3ccc(F)cc3C(F)(F)F)c(F)cc12)C(F)F)C1CC1 [Compound 155, (S)—N-(1-(1-cyclobutyl-5-fluoro-6-(4-fluoro-2-(trifluoromethyl)phenyl)-1H-pyrrolo[2,3-b]pyridin-3-yl)-2,2-difluoroethyl)cyclopropanesulfonamide]",< 0.1 µM
8,"CC(C)(C)Cn1cc([C@H](NS(=O)(=O)C2CC2)C(F)F)c2ccc(-c3ncc(Cl)cc3F)cc21 [Compound 77, (S)—N-(1-(6-(5-chloro-3-fluoropyridin-2-yl)-1-neopentyl-1H-indol-3-yl)-2,2-difluoroethyl)cyclopropanesulfonamide]",< 0.1 µM
9,"CC(C)(C)Cn1cc([C@H](NS(=O)(=O)C2CC2)C(F)F)c2ccc(-c3nccnc3C(F)(F)F)cc21 [Compound 47, (S)—N-(2,2-difluoro-1-(1-neopentyl-6-(3-(trifluoromethyl)pyrazin-2-yl)-1H-indol-3-yl)ethyl)cyclopropanesulfonamide]",< 0.1 µM
10,"CC(C)(C)Cn1cc([C@H](NS(=O)(=O)C2CC2)C(F)F)c2ccc(-c3ccc(=O)[nH]c3C(F)(F)F)cc21 [Compound 166, (S)—N-(2,2-difluoro-1-(1-neopentyl-6-(6-oxo-2-(trifluoromethyl)-1,6-dihydropyridin-3-yl)-1H-indol-3-yl)ethyl)cyclopropanesulfonamide]",< 0.1 µM
11,"CC(C)(C)Cn1cc([C@H](NS(=O)(=O)C2CC2)C(F)F)c2cc(F)c(-c3cc(F)cnc3C(F)(F)F)nc21 [Compound 148, (S)—N-(2,2-difluoro-1-(5-fluoro-6-(5-fluoro-2-(trifluoromethyl)pyridin-3-yl)-1-neopentyl-1H-pyrrolo[2,3-b]pyridin-3-yl)ethyl)cyclopropanesulfonamide]",< 0.1 µM
12,CN(C)S(=O)(=O)N[C@@H](c1cn(CC(C)(C)C)c2cc(-c3cccnc3C(F)(F)F)c(F)cc12)C(F)F [Compound 43],< 0.1 µM
13,"Cn1ncc(C(F)F)c1-c1cc2c(cc1F)c([C@H](NS(=O)(=O)C1CC1)C(F)F)cn2CC(C)(C)C [Compound 125, (S)—N-(1-(6-(4-(difluoromethyl)-1-methyl-1H-pyrazol-5-yl)-5-fluoro-1-neopentyl-1H-indol-3-yl)-2,2-difluoroethyl)cyclopropanesulfonamide]",< 0.1 µM
14,"N#Cc1nccc(C(F)F)c1-c1nc2c(cc1F)c([C@H](NS(=O)(=O)C1CC1)C(F)F)cn2C1CCC1 [Compound 162, N-((1S)-1-(6-(2-cyano-4-(difluoromethyl)pyridin-3-yl)-1-cyclobutyl-5-fluoro-1H-pyrrolo[2,3-b]pyridin-3-yl)-2,2-difluoroethyl)cyclopropanesulfonamide]",< 0.1 µM
15,"CC(NS(=O)(=O)C1CC1)c1cn(CC(C)(C)C)c2cc(-c3ncccc3C(F)(F)F)c(F)cc12 (single isomer, unassigned) [Compound 18, (S or R)—N-(1-(5-fluoro-1-neopentyl-6-(3-(trifluoromethyl)pyridine-2-yl)-1H-indol-3-yl)ethyl)cyclopropane sulfonamide]",< 0.1 µM
16,"CC(C)(C)Cn1cc([C@H](NS(=O)(=O)C2CC2)C(F)F)c2cc(F)c(-c3cncnc3C(F)(F)F)cc21 [Compound 112, (S)—N-(2,2-difluoro-1-(5-fluoro-1-neopentyl-6-(4-(trifluoromethyl)pyrimidin-5-yl)-1H-indol-3-yl)ethyl)cyclopropanesulfonamide]",< 0.1 µM
17,"CC(C)(C)Cn1cc([C@H](NS(=O)(=O)C2CC2)C(F)F)c2cc(F)c(-c3ccc(F)cc3C(F)F)cc21 [Compound 117, (S)—N-(1-(6-(2-(difluoromethyl)-4-fluorophenyl)-5-fluoro-1-neopentyl-1H-indol-3-yl)-2,2-difluoroethyl)cyclopropanesulfonamide]",< 0.1 µM
18,"CC(C)(C)Cn1cc([C@H](NS(=O)(=O)C2CC2)C(F)F)c2cc(F)c(-c3c(C#N)ccnc3C(F)(F)F)cc21 [Compound 55, N-((1S)-1-(6-(4-cyano-2-(trifluoromethyl)pyridin-3-yl)-5-fluoro-1-neopentyl-1H-indol-3-yl)-2,2-difluoroethyl)cyclopropanesulfonamide]",< 0.1 µM
19,"O=S(=O)(N[C@@H](c1cn(C2COC2)c2cc(-c3ccc(F)cc3C(F)(F)F)c(F)cc12)C(F)F)C1CC1 [Compound 176, (S)—N-(2,2-difluoro-1-(5-fluoro-6-(4-fluoro-2-(trifluoromethyl)phenyl)-1-(oxetan-3-yl)-1H-indol-3-yl)ethyl)cyclopropanesulfonamide]",0.1 to 1 µM
20,"CC(NS(=O)(=O)C1CC1)c1cn(CC(C)(C)C)c2cc(-c3cccnc3C(F)(F)F)c(F)cc12 (single isomer, unassigned) [Compound 29, (S or R) N-[1-[1-(2,2-dimethylpropyl)-5-fluoro-6-[2-(trifluoromethyl)-3-pyridyl]indol-3-yl]ethyl]cyclopropanesulfonamide]",0.1 to 1 µM
21,"CC(C)(C)Cn1cc([C@H](NS(=O)(=O)C2CC2)C(F)F)c2cc(F)c(-c3ncc(F)cc3C#N)cc21 [Compound 94, (S)—N-(1-(6-(3-cyano-5-fluoropyridin-2-yl)-5-fluoro-1-neopentyl-1H-indol-3-yl)-2,2-difluoroethyl)cyclopropanesulfonamide]",< 0.1 µM
22,"CC(NS(=O)(=O)C1CC1)c1cn(CC(C)(C)C)c2cc(-c3ccc(C(F)(F)F)nc3)c(F)cc12 (stereo not drawn) [Compound 70, N-(1-(5-fluoro-1-neopentyl-6-(6-(trifluoromethyl)pyridin-3-yl)-1H-indol-3-yl)ethyl)cyclopropanesulfonamide]",0.1 to 1 µM
23,"CC(C)(C)Cn1cc([C@H](NS(=O)(=O)C2CC2)C(F)(F)F)c2cc(F)c(-c3cccnc3C(F)(F)F)cc21 [Compound 171, (S)—N-(2,2,2-trifluoro-1-(5-fluoro-1-neopentyl-6-(2-(trifluoromethyl)pyridin-3-yl)-1H-indol-3-yl)ethyl)cyclopropanesulfonamide]",< 0.1 µM
24,CC(NS(=O)(=O)C1CC1)c1cn(CC(C)(C)C)c2cc(C3CCOCC3)c(F)cc12 (stereo not drawn) [Compound 35],< 0.1 µM
25,"CC(NS(=O)(=O)C1CC1)c1cn(CC(C)(C)C)c2cc(C3CCOCC3)ccc12 (single isomer, unassigned) [Compound 23, (R or S) N-(1-(1-neopentyl-6-(tetrahydro-2H-pyran-4-yl)-1H-indol-3-yl)ethyl)cyclopropanesulfonamide]",< 0.1 µM
26,"CC(C)(C)Cn1cc([C@H](NS(=O)(=O)C2CC2)C(F)F)c2cc(F)c(-c3ncc(Cl)cc3F)cc21 [Compound 92, (S)—N-(1-(6-(5-chloro-3-fluoropyridin-2-yl)-5-fluoro-1-neopentyl-1H-indol-3-yl)-2,2-difluoroethyl)cyclopropanesulfonamide]",< 0.1 µM
27,"CC(C)(C)Cn1cc([C@H](NS(=O)(=O)C2CC2)C(F)F)c2ccc(-c3cccnc3C(F)(F)F)cc21 [Compound 13, (S)—N-(2,2-difluoro-1-(1-neopentyl-6-(2-(trifluoromethyl)pyridin-3-yl)-1H-indol-3-yl)ethyl)cyclopropanesulfonamide]",< 0.1 µM
